Assay results published in PMC2680390 (Journal of medicinal chemistry, 2008).

How the values were obtained:
[1] = molecular target: T1, ERα/SRC-3 coactivator interaction (Homo sapiens, UniProt P03372, C381S/C530S); assay: TR-FRET CBI assay, ERα-LBD / SRC-3-NRD; assay type: binding; settings: 1 μM estradiol, fluorescein-SRC-3-NRD 50 nM; for Ki: TR-FRET Ki ERα
T1 sequence (P03372 311-547 C381S/C530S limits assumed): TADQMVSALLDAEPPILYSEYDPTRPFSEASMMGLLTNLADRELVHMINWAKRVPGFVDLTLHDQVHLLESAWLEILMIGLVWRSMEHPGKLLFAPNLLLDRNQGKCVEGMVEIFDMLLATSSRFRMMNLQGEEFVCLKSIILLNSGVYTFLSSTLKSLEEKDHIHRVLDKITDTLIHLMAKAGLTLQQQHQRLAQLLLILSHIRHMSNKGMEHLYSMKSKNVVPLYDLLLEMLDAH

[2] = molecular target: ERβ/SRC-3 coactivator interaction (Homo sapiens, UniProt Q92731); assay: TR-FRET CBI assay, ERβ-LBD / SRC-3-NRD; assay type: binding; settings: for TR-FRET Ki ERβ: estradiol present, fluorescein-SRC-3-NRD
[3] = test system: HEC-1 cells; assay: CellTiter 96 AQueous One Solution Cell Proliferation Assay; assay type: cell-based; settings: doses up to 20 μM
[4] = molecular target: ERβ (Homo sapiens, UniProt Q92731); assay: Preliminary cell-based reporter gene systems, ERβ; settings: preliminary studies
Chain of ERβ (Q92731 whole entry): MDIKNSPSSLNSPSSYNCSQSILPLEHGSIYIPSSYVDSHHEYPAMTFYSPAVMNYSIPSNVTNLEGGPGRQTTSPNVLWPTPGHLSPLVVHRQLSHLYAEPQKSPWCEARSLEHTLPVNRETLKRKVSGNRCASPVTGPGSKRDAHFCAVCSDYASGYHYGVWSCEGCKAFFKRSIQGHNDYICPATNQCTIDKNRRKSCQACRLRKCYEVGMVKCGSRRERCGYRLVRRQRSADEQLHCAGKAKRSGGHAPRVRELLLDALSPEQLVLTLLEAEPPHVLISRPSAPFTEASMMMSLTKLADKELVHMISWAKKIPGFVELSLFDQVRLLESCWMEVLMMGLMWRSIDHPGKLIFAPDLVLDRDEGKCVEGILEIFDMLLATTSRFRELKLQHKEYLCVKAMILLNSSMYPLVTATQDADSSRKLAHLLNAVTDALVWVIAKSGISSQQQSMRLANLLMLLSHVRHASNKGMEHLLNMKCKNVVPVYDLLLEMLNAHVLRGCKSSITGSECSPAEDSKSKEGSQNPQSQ

[5] = molecular target: ERα coactivator binding; settings: read-out: Ki by fluorescence polarization assay; FP assay; cited from earlier work
[6] = molecular target: T2, ERβ ligand-binding domain (site-specifically labeled terbium/streptavidin-biotin/ER-LBD construct) (site-specifically labeled with biotin; bound to streptavidin-terbium in the assay); assay: FRET or BRET
T2 chain: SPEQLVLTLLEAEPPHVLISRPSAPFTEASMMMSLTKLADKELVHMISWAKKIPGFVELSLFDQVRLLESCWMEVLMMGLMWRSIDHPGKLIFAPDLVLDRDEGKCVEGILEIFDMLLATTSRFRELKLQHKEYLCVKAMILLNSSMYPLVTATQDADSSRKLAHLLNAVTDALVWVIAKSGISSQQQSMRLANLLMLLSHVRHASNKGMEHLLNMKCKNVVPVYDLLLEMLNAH

Molecule: CC(C)CCc1cc(N(C)CC(C)C)nc(NCC(C)C)n1 [Compound 34a]
- TR-FRET Ki ERα [1]: no binding is observed

Molecule: CC(C)CNc1cc(/C=C/c2ccccc2)nc(NCC(C)C)n1 [Compound 2a, N,N'-diisobutyl-(6-styryl-pyrimidin-2,4-yl)-diamine]
- Ki [2]: 242 µM
- TR-FRET Ki ERβ [2]: very modest affinity for ERβ

Molecule: CC(C)CNc1cc(NCC(C)C)nc(NCC(C)C)n1 [Compound 25a, N,N',N''-Triisobutyl-pyrimidine-2,4,6-triamine]
- TR-FRET Ki ERβ [2]: very modest affinity for ERβ
- Viable cell counts [3]: decreased significantly only at the highest doses of compound (20 μM)

Molecule: CC(C)CCc1cc(NCC(C)C)nc(OCC(C)C)n1 [Compound 37a, [2-Isobutoxy-6-(3-methyl-butyl)-pyrimidin-4-yl]-isobutylamine]
- TR-FRET Ki ERα [1]: None of these O- or S-containing pyrimidines showed any inhibition
- Viable cell counts [3]: decreased significantly only at the highest doses of compound (20 μM)

Molecule: CC(C)CNc1ccnc(NCC(C)C)n1 [Compound 27d, 2,4-diisobutylamino-pyrimidine]
- TR-FRET Ki ERα [1]: complete loss of activity
- Ki [1]: > 1000 µM
- Ki [2]: > 1000 µM

Molecule: CC(C)CCc1cc(NCC(C)C)nc(S(=O)(=O)CC(C)C)n1 [Compound 39, Isobutyl-[6-(3-methyl-butyl)-2-(2-methyl-propane-1-sulfonyl)-pyrimidin-4-yl]-amine]
- TR-FRET Ki ERα [1]: None of these O- or S-containing pyrimidines showed any inhibition

Molecule: CC(C)CCc1cc(NCC(C)C)nc(NCc2ccccc2)n1 [Compound 18b]
- Viable cell counts [3]: decreased significantly only at the highest doses of compound (20 μM)

Molecule: CC(C)CCc1cc(NCC(C)C)nc(N(C)CC(C)C)n1 [Compound 31a]
- TR-FRET Ki ERα [1]: activity is nearly fully restored

Molecule: CC(C)CNc1cc(Cl)nc(NCC(C)C)n1 [Compound 26, 2,4-diisobutylamino-6-chloropyrimidine]
- TR-FRET Ki ERα [1]: complete loss of activity
- Ki [1]: > 1000 µM
- Ki [2]: > 1000 µM

Molecule: CC(C)CNc1cc(OCC(C)C)nc(NCC(C)C)n1 [Compound 27b]
- TR-FRET Ki ERα [1]: lack of activity

Molecule: CC(C)CNc1cc(CCc2cccc3ccccc23)nc(N(C)CC(C)C)n1 [Compound 31c]
- TR-FRET Ki ERα [1]: inactive

Molecule: CC(C)CCc1cc(NCC(C)C)nc(NCC(C)C)n1 [Compound 13b, 2,4-diisobutylamino-6-isoamylpyrimidine]
- Mechanism-based inhibition of ERβ in cell-based reporter gene systems [4]: no mechanism-based inhibition of ERβ
- Ki [5]: 29 µM

Molecule: CC(C)CSc1cc(SCC(C)C)nc(SCC(C)C)n1 [Compound 25e, 2,4,6-Tris-isobutylsulfanyl-pyrimidine]
- Ki [1]: 120 µM

Molecule: CC(C)CNc1cc(/C=C/c2ccccc2)nc(NCc2ccccc2)n1 [Compound 10a, N^2-Benzyl-N^4-isobutyl-6-styryl-pyrimidine-2,4-diamine]
- Viable cell counts [3]: decreased significantly only at the highest doses of compound (20 μM)

Molecule: CC(C)CNc1cc(CCc2ccccc2)nc(N(C)CC(C)C)n1 [Compound 32, N^2-methyl-N^2,N^4-diisobutyl-(6-phenethyl-pyrimidin-2,4-yl)-diamine]
- TR-FRET Ki ERα [1]: inactive

Molecule: CC(C)CNc1cc(S(=O)(=O)CC(C)C)nc(NCC(C)C)n1 [Compound 28]
- TR-FRET Ki ERα [1]: lack of activity

Molecule: CC(C)CNc1nc(/C=C/c2ccccc2)cc(N(Cc2ccccc2)C(=O)OC(C)(C)C)n1 [Compound 8b]
- TR-FRET Ki ERα [1]: no activity for ERα
- TR-FRET Ki ERβ [2]: very modest affinity for ERβ

Molecule: CC(C)CNc1cc(CCc2ccccc2)nc(NCC(C)C)n1 [Compound 3a]
- Mechanism-based inhibition of ERβ in cell-based reporter gene systems [4]: no mechanism-based inhibition of ERβ
- Viable cell counts [3]: decreased significantly only at the highest doses of compound (20 μM)

Molecule: CC(C)CNc1cc(NCc2ccccc2)nc(NCC(C)C)n1 [Compound 27a]
- Ki [1]: 7.3 µM
- Mechanism-based inhibition of ERβ in cell-based reporter gene systems [4]: no mechanism-based inhibition of ERβ

B1: unlabeled peptide containing the NR Box II (LXXLL motif) of SRC-1 (peptide)
chain: LTERHKILHRLLQEGSPSD
- Ki [6]: 0.066 µM
